Source: patent EP0465913B1, “Diaminotrifluoromethylpyrimidine derivatives, process for their production and phospholipase A2 inhibitor containing them” (ISHIHARA SANGYO KAISHA, LTD., priority 1990, dated 1992)
Where two headings read alike, the source gives them in different places.

Columns and labels:
[1] = test system: experimental acute pancreatitis model; assay: Effects against acute pancreatitis (Test Example 8, closed duodenal loop method, lesion scores); assay type: in vivo, Crj-CD male rats; settings: sodium salt, 6 hours after ventrotomy; for inhibition in vivo at 10 mg/kg: Rattus norvegicus, 10 mg/kg single intravenous injection
Summary of the method: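 Closed duodenal loop pancreatitis in male Crj-CD rats (n=3) under halothane/nitrous oxide; sodium-salt compounds given i.v. into tail vein by continuous infusion or bolus, controls untreated. At 6 h, four pancreatic lesions scored 0-3; inhibition % of total and hemorrhagic scores calculated versus control.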

[2] = test system: increased vascular permeability induced by acetic acid; assay: Inhibitory activity on increased vascular permeability induced by acetic acid (Mouse Whittle method, method C); assay type: in vivo, ddy male mice; settings: amount of leaked dye
Method: Using ddy male mice, each test group consisted of 4 or 5 mice. A test compound was mixed with Tween 80 [polyoxyethylenesorbitan monooleate (manufactured by Nacalai Tesque K.K.)], and distilled water was added thereto to obtain a 2% Tween 80 suspension, or it was dissolved in the form of a salt in water to obtain an aqueous solution. A test compound was orally administered, and upon expiration of one hour from the administration, 0.7% acetic acid was intraperitonially injected to each mouse in an amount of 0.1 ml/10 g, and at the same time, 2% brilliant blue was intravenously injected into the tail vein in an amount of 0.1 ml/20 g. Thirty minutes after the injection of brilliant blue, the cervical vertebrae were dislocated under anesthesia by chloroform, and the abdorminal cavity was washed with 5 ml of a physiological saline. The washing solution was subjected to centrifugal separation at 3,000 rpm for 10 minutes, and the amount of the dye in the supernatant was measured at 600 nm absorbance by Microplate ELISA Reader (Model 2550EIA Reader, manufactured by Bio-Rad Laboratories). The inhibition rate of the amount of leaked dye in the group in which a test compound was administered relative to the control group was obtained by the following formula. Inhibition rate (%) = (l -(C)/(D)) x 100 [formula] • C: Amount of leaked dye in the group to which a test compound was administered. • D: Amount of leaked dye in the control group.

[3] = biological target: T1, Porcine pancreatic phospholipase A2 (Sus scrofa, UniProt P00592); assay: Phospholipase A2 inhibitory activity, method B (L-α-dipalmitoylphosphatidylcholine substrate); assay type: biochemical; settings: 1,000 ppm, 37°C for 30 minutes, read-out: % inhibition of PLA2 (1,000 ppm)
T1 construct: purchased Boehringer Mannheim·Yamanouchi K.K. 161454·122416
T1 sequence (P00592 23-146): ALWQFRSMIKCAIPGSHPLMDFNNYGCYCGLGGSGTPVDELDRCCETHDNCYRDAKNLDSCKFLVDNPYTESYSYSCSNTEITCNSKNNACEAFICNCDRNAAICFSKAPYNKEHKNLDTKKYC
Summary of the method: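 Substrate: L-α-dipalmitoylphosphatidylcholine/sodium cholate mixed micelles in 250 mM NaCl, 100 mM Tris-HCl pH 8.0. Enzyme (10 µg/ml stock) incubated with compound in buffer containing CaCl2 and BSA, 30 min at 37 °C. Released free fatty acid measured by ACS-ACOD at 540 nm; % inhibition derived from apparent enzyme concentration read off a standard curve.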

[4] = Acute toxicity, intravenous injection (LD50); assay type: in vivo; settings: mouse, in vivo, ddy male mice, sodium salt, mortality over one week
Method: Administration route: Intravenous injection
Using ddy male mice (body weight: 25 - 30 g), each test group consisted of 5 mice. A test compound was dissolved in the form of a sodium salt in a physiological saline or in a 5% glucose aqueous solution, and intravenously injected in an amount of 0.1 ml/10 g body weight. After the injection, the mortality rate was obtained over one week, and the median lethal dose LD50 (mg/kg) was determined.

[5] = biological target: T1, Porcine pancreatic phospholipase A2; assay: Phospholipase A2 inhibitory activity, method A (egg yolk lecithin substrate); assay type: biochemical; settings: 1,000 ppm, 37°C for 30 minutes, read-out: % inhibition of PLA2 (1,000 ppm)
Method: To 10 mg of egg yolk lecithin (manufactured by Wako Pure Chemical Industries Ltd.), 1 ml of glycerine, 2 ml of a 50 mM Tris-HCl buffer solution (pH7.5) [Tris(hydroxymethyl)aminomethane (manufactured by Nacalai Tesque K.K.) was adjusted to pH7.5 with hydrochloric acid], 0.5 ml of a 150 mM calcium chloride solution (calcium chloride was dissolved in a 50 mM Tris-HCl buffer solution) and 0.5 ml of a 0.05% Triton-X100 (manufactured by Nacalai Tesque K.K.) solution (Triton-X100 was dissolved in a 50 mM Tris-HCl buffer solution), were added and dispersed by an agate mortar or dispersed by an ultrasonic processor (Model W-225, manufactured by Heat System-Ultrasonics, Inc.) for 5 minutes (30W) to obtain a substrate.
Porcine pancreatic phospholipase A2 [(161454·122416) manufactured by Boehringer Mannheim·Yamanouchi K.K.] was used.
To a 96 well microtitration plate (flat bottom, manufactured by Sumitomo Bakelite Medical Co., Ltd.), 40 µl of the substrate, 5 µl of a solution prepared by dissolving 10 mg of a test compound in 500 µl of dimethylsulfoxide, followed by an addition of 500 µl of a 50 mM Tris-HCl buffer solution, and 5 µl of an enzyme solution of 20 ng/ml (prepared by diluting the enzyme in a 50 mM Tris-HCl buffer solution), were added and reacted at 37°C for 30 minutes. After termination of the reaction, the released free fatty acid was quantitatively analyzed in accordance with the ACS-ACOD (acyl CoA synthetase-acyl CoA oxidase) method [a kit of NEFA C test wako (manufactured by Wako Pure Chemical Industries, Ltd.) was used]. The quantitative analysis was made by means of Microplate ELISA Reader (Model 2550EIA Reader, manufactured by Bio-Rad Laboratories) at a wavelength of 540 nm. Separately, such experiments as mentioned above, were carried out at various concentrations (2 µg/ml, 1 µg/ml and 0.5 µg/ml) of phospholipase A2 without a test compound. Then, the concentration of the free fatty acid versus the concentration of phospholipase A2 was plotted.
From this standard curve, the apparent concentration of phospholipase A2 in the case with a test compound, was read. Then, the percent inhibition of the enzyme was calculated by the following formula. Percent inhibition (%) = (l -(A)/(B)) x 100 [formula] • A: Apparent enzyme concentration when a test compound is added. • B: True enzyme concentration when a test compound is added.

carrageenin edema = assay: Inhibitory activity on carrageenin edema; assay type: in vivo, Wistar male rats; settings: rat, paw swelling volume three hours after carrageenin; for inhibition in vivo at 100 mg/kg: po, 3 h, dose 100 mg/kg orally, read-out: Inhibition rate (%)
Summary of the method: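 Male Wistar rats (about 100 g, 5 per group) dosed orally at 200, 100, 50 or 25 mg/kg as 2% Tween 80 suspension or aqueous salt solution, 1 h before subplantar injection of 0.1 ml 1% λ-carrageenin. Paw swelling measured at 3 h; % inhibition versus control group mean swelling.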

[6] = test system: increased vascular permeability induced by acetic acid; assay: Inhibitory activity on increased vascular permeability induced by acetic acid (Rat Whittle method, method D); assay type: in vivo, SD (Crj: CD) male rats; settings: amount of leaked dye
Method: Using SD (Crj: CD) male rats, each test group consisted of from 3 to 5 rats. A test compound was mixed with Tween 80 [polyoxyethylenesorbitan monooleate (manufactured by Nacalai Tesque K.K.)], and distilled water was added thereto to obtain a 2% Tween 80 suspension, or it was dissolved in the form of a salt in water to obtain an aqueous solution. A test compound was orally administered, and one hour later, 0.7% acetic acid was intraperitonially injected to each rat in an amount of 0.05 ml/10 g, and at the same time, 2% brilliant blue was intravenously injected into the tail vein in an amount of 0.05 ml/20 g. Thirty minutes after the injection of brilliant blue, the cervical vertebrae were dislocated under anesthesia by chloroform, and the abdorminal cavity was washed with 10 ml of a physiological saline. The washing solution was subjected to centrifugal separation at 3,000 rpm for 10 minutes, and the amount of the dye in the supernatant was measured at 600 nm absorbance by Microplate ELISA Reader (Model 2550EIA Reader, manufactured by Bio-Rad Laboratories). The inhibition rate of the amount of leaked dye in the group to which a test compound was administered relative to the control group was obtained from the following formula, and the results are shown in Table 9. Inhibition rate (%) = (l -(C)/(D)) x 100 [formula] • C: Amount of leaked dye in the group to which a test compound was administered. • D: Amount of leaked dye in the control group.

[7] = read-out: Inhibition rate of hemorrhagic lesions (%)
[8] = read-out: Inhibition rate of pancreatitis lesions (%)
[9] = 20 mg/kg continuous intravenous injection

Row | Structure (SMILES) | LD50 at 168 h ([4]; iv) [mg/kg] | inhibition at 1000 ppm [5] [%] | Inhibition rate (%) ([2]; dose 20 mg/kg orally) | inhibition in vivo at 100 mg/kg (carrageenin edema) [%] | Inhibition rate (%) ([2]; dose 50 mg/kg orally) | further results
1 | CC(=O)OCC(=O)Nc1cc(C(F)(F)F)cnc1NS(C)(=O)=O [compound 63, N-(2-methylsulfonylamino-5-trifluoromethyl-3-pyridyl)acetoxyacetamide] | > 130 | – | – | – | – | inhibition in vivo at 10 mg/kg [1, 7]: 83%; inhibition in vivo at 10 mg/kg [1, 8]: 66%; Inhibition rate (%) ([2]; dose 10 mg/kg orally): 41%; inhibition at 1000 ppm [3]: 34%
2 | CCCOC(=O)Nc1cc(C(F)(F)F)cnc1NS(C)(=O)=O [compound 16] | – | 43 | 55 | 24 | – | Inhibition rate of hemorrhagic lesions (%) [1, 9]: 52%; LD50 at 168 h [4]: > 100 mg/kg
3 | CS(=O)(=O)Nc1ncc(C(F)(F)F)cc1NC(=O)c1ccccc1F [compound 57] | 83 | 57 | 43 | 35 | – | Inhibition rate of hemorrhagic lesions (%) [1, 9]: 60%
4 | CCCCCC(=O)Nc1cc(C(F)(F)F)cnc1NS(C)(=O)=O [Compound No. 3] | > 100 | 67 | – | 20 | 58 | inhibition in vivo at 10 mg/kg [1, 7]: 49%; inhibition in vivo at 10 mg/kg [1, 8]: 51%
5 | CCS(=O)(=O)Nc1ncc(C(F)(F)F)cc1NC(=O)c1cccc(F)c1 [compound 98] | – | – | – | – | – | Inhibition rate (%) ([6]; dose 50 mg/kg orally): 32%; inhibition at 1000 ppm [3]: 65%; Inhibition rate (%) (carrageenin edema; dose 50 mg/kg orally): 45%
6 | CCCS(=O)(=O)Nc1ncc(C(F)(F)F)cc1NC(=O)C(F)(F)C(F)(F)F [compound 22] | > 100 | 74 | – | 29 | – | Inhibition rate (%) ([2]; dose 10 mg/kg orally): 39%
7 | CCCCC(=O)Nc1cc(C(F)(F)F)cnc1NS(C)(=O)=O [Compound No. 2] | 50 to 100 | 55 | 51 | 17 | – | Inhibition rate of hemorrhagic lesions (%) ([1]; 26 mg/kg continuous intravenous injection): 46%
8 | CS(=O)(=O)Nc1ncc(C(F)(F)F)cc1NC(=O)C1CCCCC1 [compound 8] | > 25 | 81 | 48 | – | – | –
9 | C=CC(=O)Nc1cc(C(F)(F)F)cnc1NS(C)(=O)=O [compound 9] | > 150 | 71 | – | – | 81 | inhibition in vivo at 10 mg/kg [1, 7]: 36%; inhibition in vivo at 10 mg/kg [1, 8]: 21%
10 | CCOC(=O)NC(=S)Nc1cc(C(F)(F)F)cnc1NS(C)(=O)=O [compound 18] | – | 64 | – | – | – | Inhibition rate (%) ([2]; dose 25 mg/kg orally): 49%; inhibition at 1000 ppm [3]: 49%; LD50 at 168 h [4]: > 150 mg/kg
11 | C=CC(=O)Nc1cc(C(F)(F)F)cnc1NS(=O)(=O)CC [compound 49] | 175 | 30 | 50 | – | – | Inhibition rate of hemorrhagic lesions (%) ([1]; 42 mg/kg continuous intravenous injection): 68%
12 | CS(=O)(=O)Nc1ncc(C(F)(F)F)cc1NC(=O)C(F)(F)Cl [compound 11] | > 150 | 52 | – | 24 | – | Inhibition rate of hemorrhagic lesions (%) ([1]; 23 mg/kg continuous intravenous injection): 52%; Inhibition rate (%) ([2]; dose 100 mg/kg orally): 49%
13 | C/C=C/C(=O)Nc1cc(C(F)(F)F)cnc1NS(C)(=O)=O [compound 55, N-(2-methylsulfonylamino-5-trifluoromethyl-3-pyridyl)crotonamide] | 237 | 49 | – | – | – | Inhibition rate of hemorrhagic lesions (%) ([1]; 40 mg/kg continuous intravenous injection): 65%; Inhibition rate (%) ([2]; dose 25 mg/kg orally): 59%
14 | CCCC(=O)Nc1cc(C(F)(F)F)cnc1NS(C)(=O)=O [Compound No. 1] | 100 to 150 | 45 | – | – | 46 | inhibition in vivo at 10 mg/kg [1, 7]: 66%; inhibition in vivo at 10 mg/kg [1, 8]: 49%
15 | CCCCOC(=O)Nc1cc(C(F)(F)F)cnc1NS(C)(=O)=O [compound 17] | – | 46 | – | – | 31 | Inhibition rate of hemorrhagic lesions (%) [1, 9]: 73%; LD50 at 168 h [4]: 50 to 100 mg/kg
16 | O=C(NNc1ncc(C(F)(F)F)cc1NC(=O)C(F)(F)C(F)(F)F)c1ccccc1 [compound 39] | – | 41 | 53 | 25 | – | –
17 | CCCCCCCCCCCC(=O)Nc1cc(C(F)(F)F)cnc1NS(C)(=O)=O [compound 5] | – | 39 | – | 37 | 53 | –
18 | CCOC(=O)Nc1cc(C(F)(F)F)cnc1NS(C)(=O)=O [compound 15] | – | 62 | – | – | 41 | inhibition in vivo at 10 mg/kg [1, 7]: 45%; inhibition in vivo at 10 mg/kg [1, 8]: 61%; LD50 at 168 h [4]: 100 to 150 mg/kg
19 | CS(=O)(=O)Nc1ncc(C(F)(F)F)cc1NC(=O)OC1CCCCC1 [compound 121] | – | – | – | – | – | Inhibition rate (%) ([6]; dose 12.5 mg/kg orally): 31%; inhibition at 1000 ppm [3]: 90%
